Reference: patent US8492371B2, “Compounds as cannabinoid receptor ligands” (priority 2009, dated 2013)
Like-named read-outs stand apart in the source and are kept apart here.

Experiments:
human CB2 receptors = target: T1, human CB2 receptors (Homo sapiens, UniProt P34972); assay: Human CB2 radioligand binding assay ([3H]CP-55,940 competition)
T1 construct: expressed in transfected cells; host or cells: HEK293
Method: The CB1 and CB2 radioligand binding assays described herein are utilized to determine the selectivity of compounds of the present invention for binding to CB2 relative to CB1 receptors.
(§1) HEK293 cells stably expressing human CB2 receptors were grown until a confluent monolayer was formed. Briefly, the cells were harvested and homogenized in TE buffer (50 mM Tris-HCl, 1 mM MgCl2, and 1 mM EDTA) using a polytron for 2×10 second bursts in the presence of protease inhibitors, followed by centrifugation at 45,000×g for 20 minutes. The final membrane pellet was re-homogenized in storage buffer (50 mM Tris-HCl, 1 mM MgCl2, and 1 mM EDTA and 10% sucrose) and frozen at −78° C. until used. Saturation binding reactions were initiated by the addition of membrane preparation (protein concentration of 5 μg/well for human CB2) into wells of a deep well plate containing ([^3H]CP-55,940 (120 Ci/mmol, a nonselective CB agonist commercially available from Tocris) in assay buffer (50 mM Tris, 2.5 mM EDTA, 5 mM MgCl2, and 0.5 mg/mL fatty acid free BSA, pH 7.4). After 90 min incubation at 30° C., binding reaction was terminated by the addition of 300 μL/well of cold assay buffer followed by rapid vacuum filtration through a UniFilter-96 GF/C filter plates (pre-soaked in 1 mg/mL BSA for 2 hours). The bound activity was counted in a TopCount using Microscint-20. Saturation experiments were conducted with twelve concentrations of [^3H]CP-55,940 ranging from 0.01 to 8 nM. Competition experiments were conducted with 0.5 nM [^3H]CP-55,940 and five concentrations of displacing ligands selected from the range of 0.01 nM to 10 μM. The addition of 10 μM unlabeled CP-55,940 (Tocris, Ellisville, Mo.) was used to assess nonspecific binding.

rat CB2 receptors = target: T2, rat CB2 receptors (Rattus norvegicus, UniProt Q9QZN9); assay: Rat CB2 radioligand binding assay ([3H]CP-55,940 competition)
T2 construct: expressed in transfected cells; host or cells: HEK293
T2 sequence (Q9QZN9 1-360): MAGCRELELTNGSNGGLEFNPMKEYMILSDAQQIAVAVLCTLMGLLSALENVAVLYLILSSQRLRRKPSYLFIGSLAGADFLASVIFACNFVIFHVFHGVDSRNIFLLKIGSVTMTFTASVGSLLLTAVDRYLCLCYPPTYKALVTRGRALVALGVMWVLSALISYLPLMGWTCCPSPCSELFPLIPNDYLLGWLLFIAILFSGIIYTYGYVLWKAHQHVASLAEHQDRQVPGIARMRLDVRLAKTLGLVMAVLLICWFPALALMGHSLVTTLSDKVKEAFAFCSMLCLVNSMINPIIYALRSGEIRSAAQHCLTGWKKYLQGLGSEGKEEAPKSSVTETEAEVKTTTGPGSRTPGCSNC
Method: as §1, with “expressing rat” for “expressing human”, “of 20” for “of 5”, “for rat” for “for human”, “containing [^3H]CP-55,940” for “containing ([^3H]CP-55,940”, “After 45” for “After 90”, “[…]” for “10 μM.”

[1] = HEK293 membranes, 0.5 nM [3H]CP-55,940, read-out: human CB2 Ki

T1 sequence (P34972 whole entry): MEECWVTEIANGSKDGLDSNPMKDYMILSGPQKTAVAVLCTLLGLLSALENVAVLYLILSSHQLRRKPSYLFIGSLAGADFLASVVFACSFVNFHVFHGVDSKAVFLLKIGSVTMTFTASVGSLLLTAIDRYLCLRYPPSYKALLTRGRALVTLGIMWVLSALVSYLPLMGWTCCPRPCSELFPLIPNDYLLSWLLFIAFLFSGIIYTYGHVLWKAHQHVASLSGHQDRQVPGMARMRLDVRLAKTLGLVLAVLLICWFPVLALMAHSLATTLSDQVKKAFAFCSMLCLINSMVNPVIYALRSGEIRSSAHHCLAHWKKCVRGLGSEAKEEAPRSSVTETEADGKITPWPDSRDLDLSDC

SMILES	Ki (human CB2 receptors) [nM]	Ki (rat CB2 receptors) [nM]	Ki (human CB2 receptors; [1]) [nM]
COc1ccc(C(F)(F)F)cc1C(=O)/N=c1\cc(C(C)(C)C)n(C)n1CC1CC[C@@H](C)O1 (mixture of isomers) [Example 64, N-((3E)-5-tert-butyl-1-methyl-2-{[(5R)-5-methyltetrahydrofuran-2-yl]methyl}-1,2-dihydro-3H-pyrazol-3-ylidene)-2-methoxy-5-(trifluoromethyl)benzamide]	30	6.2	–
COc1ccc(Cl)cc1C(=O)/N=c1\sc(C2(C(F)(F)F)CC2)nn1C[C@H]1CCCO1 [Example 1, 5-chloro-2-methoxy-N-[(2Z)-3-[(2R)-tetrahydrofuran-2-ylmethyl]-5-[1-(trifluoromethyl)cyclopropyl]-1,3,4-thiadiazol-2(3H)-ylidene]benzamide]	51	2.9	–
COc1ccc(Cl)cc1C(=O)/N=c1\sc(C2CC2)nn1CC1CCCO1 (centres unmarked) [Example 2, 5-chloro-N-[(2Z)-5-cyclopropyl-3-(tetrahydrofuran-2-ylmethyl)-1,3,4-thiadiazol-2(3 H)-ylidene]-2-methoxybenzamide]	17	12	–
CCOc1ccccc1C(=O)/N=c1\sc(C2CC2)nn1CC1CCCO1 (centres unmarked) [Example 3, N-[(2Z)-5-cyclopropyl-3-(tetrahydrofuran-2-ylmethyl)-1,3,4-thiadiazol-2(3H)-ylidene]-2-ethoxybenzamide]	–	71	114
COc1ccc(Cl)cc1C(=O)/N=c1\sc(C(C)(C)C)nn1C[C@H]1CCCO1 [Example 4, N-[(2Z)-5-tert-butyl-3-[(2R)-tetrahydrofuran-2-ylmethyl]-1,3,4-thiadiazol-2(3 H)-ylidene]-5-chloro-2-methoxybenzamide]	6.9	1.2	–
COc1ccc(Cl)cc1C(=O)/N=c1\sc(C2(C)CC2)nn1C[C@H]1CCCO1 [Example 5, 5-chloro-2-methoxy-N-[(2Z)-5-(1-methylcyclopropyl)-3-[(2R)-tetrahydrofuran-2-ylmethyl]-1,3,4-thiadiazol-2(3H)-ylidene]benzamide]	9.1	0.9	–
C#CC(C)(C)c1nn(C[C@H]2CCCO2)/c(=N/C(=O)c2cc(Cl)ccc2OC)s1 [Example 6, 5-chloro-N-[(2Z)-5-(1,1-dimethylprop-2-ynyl)-3-[(2R)-tetrahydrofuran-2-ylmethyl]-1,3,4-thiadiazol-2(3H)-ylidene]-2-methoxybenzamide]	20	3.3	–
COc1ccc(Cl)cc1C(=O)/N=c1\sc(C2(C)CC(F)(F)C2(F)F)nn1C[C@H]1CCCO1 (some centres unmarked) [Example 7, 5-chloro-2-methoxy-N-[(2Z)-5-(2,2,3,3-tetrafluoro-1-methylcyclobutyl)-3-[(2 R)-tetrahydrofuran-2-ylmethyl]-1,3,4-thiadiazol-2(3H)-ylidene]benzamide]	38	1.6	–
COc1ccc(Cl)cc1C(=O)/N=c1\sc(C2(C(F)(F)F)CCC2)nn1C[C@H]1CCCO1 [Example 8, 5-chloro-2-methoxy-N-[(2Z)-3-[(2R)-tetrahydrofuran-2-ylmethyl]-5-[1-(trifluoromethyl)cyclobutyl]-1,3,4-thiadiazol-2(3H)-ylidene]benzamide]	–	0.8	–
COc1ccc(Cl)cc1C(=O)/N=c1\sc(C(C)(C)C(F)(F)F)nn1C[C@H]1CCCO1 [Example 9, 5-chloro-2-methoxy-N-[(2Z)-3-[(2R)-tetrahydrofuran-2-ylmethyl]-5-(2,2,2-trifluoro-1,1-dimethylethyl)-1,3,4-thiadiazol-2(3H)-ylidene]benzamide]	33	1.4	–
COc1ccc(Cl)cc1C(=O)/N=c1\ccc(C)cn1CC1CCCO1 (centres unmarked) [Example 10, 5-chloro-2-methoxy-N-[(2E)-5-methyl-1-(tetrahydrofuran-2-ylmethyl)pyridin-2(1 H)-ylidene]benzamide]	–	–	360
COc1ccc(Cl)cc1C(=O)/N=c1\cc(C(C)(C)C)on1C[C@H]1CCCO1 [Example 11, N-[(3E)-5-tert-butyl-2-[(2R)-tetrahydrofuran-2-ylmethyl]isoxazol-3(2H)-ylidene]-5-chloro-2-methoxybenzamide]	4.8	2.6	–
COc1ccc(Cl)cc1C(=O)/N=c1\oc(C(C)(C)C)cn1C[C@H]1CCCO1 [Example 13, N-[(2Z)-5-tert-butyl-3-[(2R)-tetrahydrofuran-2-ylmethyl]-1,3-oxazol-2(3H)-ylidene]-5-chloro-2-methoxybenzamide]	4.8	1.9	–
CCOc1ccc(C(F)(F)F)cc1C(=O)/N=c1\cc(C(C)(C)C)n(C)n1C[C@H]1CCCO1 [Example 14, N-{(3E)-5-tert-butyl-1-methyl-2-[(2R)-tetrahydrofuran-2-ylmethyl]-1,2-dihydro-3H-pyrazol-3-ylidene}-2-ethoxy-5-(trifluoromethyl)benzamide]	35	24	–
Cn1c(C(C)(C)C)c/c(=N\C(=O)c2cccc(S(F)(F)(F)(F)F)c2)n1C[C@H]1CCCO1 [Example 15, N-{(3E)-5-tert-butyl-1-methyl-2-[(2R)-tetrahydrofuran-2-ylmethyl]-1,2-dihydro-3H-pyrazol-3-ylidene}-3-(pentafluoro-lambda˜6˜sulfanyl)benzamide]	2.8	1.2	–
Cn1c(C(C)(C)C)c/c(=N\C(=O)c2cc(C(F)(F)F)ccc2OC[C@H]2C[C@@H](O)C2)n1C[C@H]1CCCO1 [Example 16, N-{(3E)-5-tert-butyl-1-methyl-2-[(2R)-tetrahydrofuran-2-ylmethyl]-1,2-dihydro-3H-pyrazol-3-ylidene}-2-[(cis-3-hydroxycyclobutyl)methoxy]-5-(trifluoromethyl)benzamide]	147	84	–
Cn1c(C(C)(C)C)c/c(=N\C(=O)c2cc(C(F)(F)F)ccc2OCC2CC(=O)C2)n1C[C@H]1CCCO1 [Example 17, N-{(3E)-5-tert-butyl-1-methyl-2-[(2R)-tetrahydrofuran-2-ylmethyl]-1,2-dihydro-3H-pyrazol-3-ylidene}-2-[(3-oxocyclobutyl)methoxy]-5-(trifluoromethyl)benzamide]	–	58	230
CO[C@H]1C[C@@H](COc2ccc(C(F)(F)F)cc2C(=O)/N=c2\cc(C(C)(C)C)n(C)n2C[C@H]2CCCO2)C1 [Example 18]	51	99	–
Cn1c(C(C)(C)C)c/c(=N\C(=O)c2cc(C(F)(F)F)ccc2OCC2CC(F)(F)C2)n1C[C@H]1CCCO1 [Example 19, N-{(3E)-5-tert-butyl-1-methyl-2-[(2R)-tetrahydrofuran-2-ylmethyl]-1,2-dihydro-3H-pyrazol-3-ylidene}-2-[(3,3-difluorocyclobutyl)methoxy]-5-(trifluoromethyl)benzamide]	22	11	–
COC(C)(C)CCOc1ccc(C(F)(F)F)cc1C(=O)/N=c1\cc(C(C)(C)C)n(C)n1C[C@H]1CCCO1 [Example 20, N-{(3E)-5-tert-butyl-1-methyl-2-[(2R)-tetrahydrofuran-2-ylmethyl]-1,2-dihydro-3H-pyrazol-3-ylidene}-2-(3-methoxy-3-methylbutoxy)-5-(trifluoromethyl)benzamide]	25	23	–
